From patent US9980943B2, “Methods of treating muscular dystrophy” (BOARD OF REGENTS OF THE NEVADA SYSTEM OF HIGHER EDUCATION, …, priority 2013, dated 2018)

How the values were obtained:
Assay type in all cases: cell-based, mouse
[1] = system: β-galactosidase in CMV-LacZ C2C12 myoblasts; experiment: CMV-LacZ secondary screen in C2C12 myoblasts (β-Gal stabilizing assay); conditions: CMV-LacZ C2C12 myoblasts
How it was run: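 CMV-LacZ C2C12 line (clonal, FDG-screened); myoblasts/myotubes dosed 0.5–40 μM (0.5, 1, 5, 10, 20, 40 μM); n=2 per point; β-gal stabilization read-out.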

[2] = system: β-galactosidase in CMV-LacZ C2C12 myotubes; experiment: CMV-LacZ secondary screen in C2C12 myotubes (β-Gal stabilizing assay); conditions: C2C12 CMV-LacZ myotubes, fold relative to DMSO
How it was run: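 β-gal stabilization was measured in C2C12 myoblasts or myotubes stably transfected with a CMV-driven LacZ construct, using the FDG β-gal assay. Compounds were tested in dose-response at 0.5, 1, 5, 10, 20 and 40 μM, with two replicates per point.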

[3] = system: α7 integrin (LacZ reporter in α7+/LacZ myotubes); experiment: Myotube α7 integrin FDG assay (Burkin assay in myotubes, 96-well); conditions: myotubes
[4] = system: α7 integrin (LacZ reporter in α7βgal+/− myoblasts); experiment: Myoblast α7+/LacZ integrin FDG assay (Burkin assay in myoblasts, 96-well); conditions: α7+/LacZ myoblasts, 96-well

Compound | CMV-LACZ in Myoblasts (β-galactosidase activity relative to DMSO) ([1]; 0.5 uM) | CMV-LACZ in Myoblasts (β-galactosidase activity relative to DMSO) ([1]; 1 uM) | CMV-LACZ in Myoblasts (β-galactosidase activity relative to DMSO) ([1]; 5 uM) | CMV-LACZ in Myoblasts (β-galactosidase activity relative to DMSO) ([1]; 10 uM) | CMV-LACZ in Myoblasts (β-galactosidase activity relative to DMSO) ([1]; 20 uM) | CMV-LACZ in Myoblasts (β-galactosidase activity relative to DMSO) ([1]; 40 uM) | CMV-LACZ in Myotubes, signal relative to DMSO ([2]; 0.5 uM) | CMV-LACZ in Myotubes, signal relative to DMSO ([2]; 1 uM) | CMV-LACZ in Myotubes, signal relative to DMSO ([2]; 5 uM) | CMV-LACZ in Myotubes, signal relative to DMSO ([2]; 10 uM) | CMV-LACZ in Myotubes, signal relative to DMSO ([2]; 20 uM) | CMV-LACZ in Myotubes, signal relative to DMSO ([2]; 40 uM) | Burkin Assay in Myotubes, α7 integrin LacZ reporter signal relative to DMSO ([3]; 0.5 uM) | Burkin Assay in Myotubes, α7 integrin LacZ reporter signal relative to DMSO ([3]; 1 uM) | Burkin Assay in Myotubes, α7 integrin LacZ reporter signal relative to DMSO ([3]; 5 uM) | Burkin Assay in Myotubes, α7 integrin LacZ reporter signal relative to DMSO ([3]; 10 uM) | Burkin Assay in Myotubes, α7 integrin LacZ reporter signal relative to DMSO ([3]; 20 uM) | Burkin Assay in Myotubes, α7 integrin LacZ reporter signal relative to DMSO ([3]; 40 uM) | Burkin Assay in Myoblasts, signal relative to DMSO ([4]; 0.5 uM) | Burkin Assay in Myoblasts, signal relative to DMSO ([4]; 1 uM) | also measured
CC(O)CNc1nc2c(c(=O)n(Cc3ccc(Br)cc3)c(=O)n2C)n1C (stereo not drawn) [MLS001212319-01] | 0.9129 | 1.2040 | 1.0840 | 0.8600 | 1.2056 | 1.0259 | 1.1524 | 0.8152 | 0.9525 | 0.9253 | 0.9965 | 1.0706 | 1.134 | 1.139 | 0.9476 | 0.9201 | 0.7396 | 0.631 | 1.05 | 1.026 | Burkin Assay in Myoblasts, signal relative to DMSO ([4]; 5 uM): 0.9412; Burkin Assay in Myoblasts, signal relative to DMSO ([4]; 10 uM): 0.8826; Burkin Assay in Myoblasts, signal relative to DMSO ([4]; 20 uM): 0.8529; Burkin Assay in Myoblasts, signal relative to DMSO ([4]; 40 uM): 0.782
CCOC(=O)c1nnn(-c2nonc2OC)c1-c1ccccc1 [MLS000045588-01] | 0.7647 | 0.8372 | 1.0245 | 1.0611 | 0.8056 | 1.2167 | 0.9059 | 0.8607 | 1.2294 | 0.9776 | 1.0494 | 0.9424 | 1.077 | 1.099 | 1.135 | 1.036 | 1.063 | 0.9546 | 1.016 | 1.107 | Burkin Assay in Myoblasts, signal relative to DMSO ([4]; 5 uM): 1.075; Burkin Assay in Myoblasts, signal relative to DMSO ([4]; 10 uM): 0.917; Burkin Assay in Myoblasts, signal relative to DMSO ([4]; 20 uM): 1.003; Burkin Assay in Myoblasts, signal relative to DMSO ([4]; 40 uM): 0.8919
CCn1c(=O)c2cc(C(=O)N(C)c3cc(C)ccc3OC)sc2c2ccccc21 [MLS000731285-01] | 1.1747 | 1.0853 | 1.0851 | 0.8436 | 0.9582 | 0.6572 | 1.2048 | 1.0562 | 1.4794 | 1.3012 | 1.0310 | 0.6450 | 0.8544 | 0.961 | 0.8695 | 0.9409 | 0.69 | 0.1953 | 1.064 | 0.9235 | Burkin Assay in Myoblasts, signal relative to DMSO ([4]; 5 uM): 0.7727; Burkin Assay in Myoblasts, signal relative to DMSO ([4]; 10 uM): 0.7344; Burkin Assay in Myoblasts, signal relative to DMSO ([4]; 20 uM): 0.604; Burkin Assay in Myoblasts, signal relative to DMSO ([4]; 40 uM): 0.6077
O=C(NCc1ccccc1)c1csc(-c2cccnc2)n1 [MLS000860966-01] | 0.9370 | 1.0900 | 0.7918 | 0.8424 | 0.6232 | 0.7600 | 0.8229 | 1.0743 | 0.9632 | 0.8601 | 0.9190 | 0.7920 | 0.9275 | 0.8211 | 1.1137 | 1.107 | 1.06 | 0.8927 | 0.8092 | 0.9506 | Burkin Assay in Myoblasts, signal relative to DMSO ([4]; 5 uM): 1.225; Burkin Assay in Myoblasts, signal relative to DMSO ([4]; 10 uM): 1.126; Burkin Assay in Myoblasts, signal relative to DMSO ([4]; 20 uM): 1.242; Burkin Assay in Myoblasts, signal relative to DMSO ([4]; 40 uM): 1.117
